Laboratory results published in US7700602B2, “Amino-5,5-diphenylimidazolone derivatives for the inhibition of β-secretase” (Wyeth LLC, priority 2004, dated 2010).

Assays:
human BACE1 = human BACE1 (Homo sapiens, UniProt P56817); assay: Fluorescent kinetic assay, inhibition of BACE1 (WABC-6 peptide substrate); type: biochemical; details: 10 nM enzyme, 25 μM substrate WABC-6, pH 4.5, room temperature; read-out: IC50 (μM) BACE1;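 note: fluorescence monitored at 320 nm excitation and 420 nm emission every 40 s over 30 min, with the substrate cleavage rate taken from the linear slope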
human BACE2 = biological target: T1, human BACE2 (Homo sapiens, UniProt Q9Y5Z0); assay: Fluorescent Kinetic Assay for Human Recombinant BACE 2 (selectivity BACE1/BACE2); type: biochemical; details: selectivity BACE1 over BACE2; 1.5 nM human BACE2, 25 μM substrate, pH 4.5;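 note: cleavage rate from the linear slope of fluorescence (excitation 320 nm, emission 420 nm) recorded every 40 s over 30 min at room temperature, sodium acetate buffer with 0.05% CHAPS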
T1 sequence (Q9Y5Z0 63-518): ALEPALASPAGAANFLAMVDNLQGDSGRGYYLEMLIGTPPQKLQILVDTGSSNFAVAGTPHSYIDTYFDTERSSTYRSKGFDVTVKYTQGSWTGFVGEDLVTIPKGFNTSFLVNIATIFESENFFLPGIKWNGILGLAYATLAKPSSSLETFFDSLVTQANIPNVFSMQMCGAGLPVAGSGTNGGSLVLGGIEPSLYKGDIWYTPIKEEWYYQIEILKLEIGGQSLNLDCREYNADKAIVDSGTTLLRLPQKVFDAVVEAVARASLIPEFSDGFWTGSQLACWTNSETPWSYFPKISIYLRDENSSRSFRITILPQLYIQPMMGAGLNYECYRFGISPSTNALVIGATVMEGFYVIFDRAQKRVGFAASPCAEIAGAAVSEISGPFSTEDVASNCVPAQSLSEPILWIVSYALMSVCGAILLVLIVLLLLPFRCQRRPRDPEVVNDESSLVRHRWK

human BACE1, sequence (P56817 46-501): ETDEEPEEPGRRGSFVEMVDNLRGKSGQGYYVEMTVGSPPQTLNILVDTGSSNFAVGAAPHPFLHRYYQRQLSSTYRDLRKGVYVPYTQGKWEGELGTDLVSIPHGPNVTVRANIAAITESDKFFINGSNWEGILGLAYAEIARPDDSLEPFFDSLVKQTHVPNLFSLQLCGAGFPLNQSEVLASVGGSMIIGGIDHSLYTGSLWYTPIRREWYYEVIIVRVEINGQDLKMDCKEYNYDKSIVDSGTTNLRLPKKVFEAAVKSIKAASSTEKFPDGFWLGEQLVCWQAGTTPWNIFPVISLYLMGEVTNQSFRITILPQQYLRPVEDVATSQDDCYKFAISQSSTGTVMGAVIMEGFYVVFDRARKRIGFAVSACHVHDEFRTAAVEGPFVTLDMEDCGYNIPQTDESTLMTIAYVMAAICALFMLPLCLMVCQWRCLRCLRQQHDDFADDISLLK

Row | SMILES | IC50 (human BACE1) [µM] | BACE1/BACE2 selectivity (human BACE2) | melting point [°C]
1 | Cc1cc(C2(c3cccc(-c4cncnc4)c3)N=C(N)N(C)C2=O)ccc1OCC(C)C (stereo not shown) [Example 122] | 0.01 to 0.1 | II (II = 10-100-fold selectivity) | 103 to 105
2 | CN1C(=O)C(c2ccc(OCCF)cc2)(c2cccc(-c3ccc(F)nc3)c2)N=C1N (stereo not shown) [Example 111] | 0.11 to 1 | III (III = <10-fold selectivity) | 100
3 | Cc1cc(C2(c3cccc(-c4cncnc4)c3)N=C(N)N(C)C2=O)ccc1OCC#N (stereo not shown) [Example 117] | 0.01 to 0.1 | II (II = 10-100-fold selectivity) | 220 to 222
4 | Cc1cc(C2(c3cccc(-c4cncnc4)c3)N=C(N)N(C)C2=O)ccc1O[C@H](C)c1ccccc1 (stereo partly drawn) [Example 131, 2-amino-3-methyl-5-{3-methyl-4-[(1R)-1-phenylethoxy]phenyl}-5-(3-pyrimidin-5-ylphenyl)-3,5-dihydro-4H-imidazol-4-one] | 0.01 to 0.1 | – | 112 to 114
5 | Cc1cc(C2(c3cccc(-c4cncnc4)c3)N=C(N)N(C)C2=O)ccc1O (stereo not shown) [Example 115] | 0.01 to 0.1 | II (II = 10-100-fold selectivity) | 168 to 170
6 | CN1C(=O)C(c2ccc(OC(F)F)cc2)(c2ccc(F)c(-c3cncnc3)c2)N=C1N (stereo not shown) [Example 97] | 0.01 to 0.1 | II (II = 10-100-fold selectivity) | 103 to 105
7 | COc1cncc(-c2cccc(C3(c4ccc(OC(F)(F)F)cc4)N=C(N)N(C)C3=O)c2)c1 (stereo not shown) [Example 51] | 0.01 to 0.1 | III (III = <10-fold selectivity) | 212
8 | CN1C(=O)C(c2ccc(OCCF)cc2)(c2ccc(F)c(-c3cncnc3)c2)N=C1N (stereo not shown) [Example 109] | 0.01 to 0.1 | II (II = 10-100-fold selectivity) | 123
9 | Cc1cc(C2(c3ccc(F)c(-c4cncnc4)c3)N=C(N)N(C)C2=O)ccc1OCCF (stereo not shown) [Example 113] | 0.01 to 0.1 | I (I = >100-fold selectivity) | 108 to 110
10 | CN1C(=O)C(c2ccc(OCCF)cc2)(c2ccc(F)c(-c3cccnc3F)c2)N=C1N (stereo not shown) [Example 108, 2-Amino-5-[4-(2-fluoroethoxy)phenyl]-5-[4-fluoro-3-(2-fluoropyridin-3-yl)phenyl]-3-methyl-3,5-dihydro-4H-imidazol-4-one] | 0.01 to 0.1 | II (II = 10-100-fold selectivity) | 135
11 | Cc1cc(C2(c3cccc(-c4cncnc4)c3)N=C(N)N(C)C2=O)ccc1OC(C)C (stereo not shown) [Example 118] | 0.01 to 0.1 | I (I = >100-fold selectivity) | 101 to 103
12 | CN1C(=O)C(c2ccc(OC(F)F)cc2)(c2ccc(F)c(-c3cccnc3F)c2)N=C1N (stereo not shown) [Example 96] | 0.01 to 0.1 | II (II = 10-100-fold selectivity) | 108 to 110
13 | Cc1cc(C2(c3cccc(-c4cncnc4)c3)N=C(N)N(C)C2=O)ccc1OCCF (stereo not shown) [Example 116] | 0.01 to 0.1 | II (II = 10-100-fold selectivity) | 108 to 110
14 | COc1ccc(C2(c3cccc(-c4ccncc4)c3)N=C(N)N(C)C2=O)cc1C (stereo not shown) [Example 36, 2-Amino-5-(4-methoxy-3-methylphenyl)-3-methyl-5-(3-pyridin-4-ylphenyl)-3,5-dihydro-4H-imidazol-4-one] | 0.01 to 0.1 | III (III = <10-fold selectivity) | 175
15 | CCCNC1=NC(c2cccc(-c3cncnc3)c2)(c2ccc(OCCC)c(C)c2)C(=O)N1C (stereo not shown) | – | – | 64 to 66
16 | Cc1cc(C2(c3cccc(-c4cncnc4)c3)N=C(N)N(C)C2=O)ccc1OCc1ccccc1 (stereo not shown) [Example 114] | 0.01 to 0.1 | II (II = 10-100-fold selectivity) | 107 to 109
17 | CCCOc1ccc(C2(c3cccc(-c4cncnc4)c3)N=C(N)N(C)C2=O)cc1C (stereo not shown) [Example 121] | 0.01 to 0.1 | II (II = 10-100-fold selectivity) | 102 to 104
18 | Cc1cc(C2(c3cccc(-c4cncnc4)c3)N=C(N)N(C)C2=O)ccc1OCCCOc1ccccc1 (stereo not shown) [Example 124] | 0.01 to 0.1 | II (II = 10-100-fold selectivity) | 72 to 74
19 | CCOC(=O)COc1ccc(C2(c3cccc(-c4cncnc4)c3)N=C(N)N(C)C2=O)cc1C (stereo not shown) [Example 119] | 0.11 to 1 | II (II = 10-100-fold selectivity) | 105 to 107
20 | CCOc1ccc(C2(c3ccc(F)c(-c4cncnc4)c3)N=C(N)N(C)C2=O)cc1OCC (stereo not shown) [Example 86] | 0.01 to 0.1 | I (I = >100-fold selectivity) | 95 to 98
21 | CN1C(=S)C(c2ccc(OC(F)(F)F)cc2)(c2cccc(-c3cccnc3F)c2)N=C1N (stereo not shown) [Example 145, 2-Amino-5-[3-(2-fluoro-pyridin-3-yl)-phenyl]-3-methyl-5-(4-trifluoromethoxy-phenyl)-3,5-dihydro-imidazole-4-thione] | 0.01 to 0.1 | II (II = 10-100-fold selectivity) | 89 to 99
22 | CCOc1ccc(C2(c3cccc(-c4cncnc4)c3)N=C(N)N(C)C2=O)cc1OCC (stereo not shown) [Example 44] | 0.01 to 0.1 | II (II = 10-100-fold selectivity) | 100 to 105
23 | CN1C(=O)C(c2ccc(OC(F)(F)F)cc2)(c2cccc(-c3cncnc3)c2F)N=C1N (stereo not shown) [Example 48] | > 1 | II (II = 10-100-fold selectivity) | –
24 | CCCCOc1cc(C2(c3cccc(-c4cccnc4)c3)N=C(N)N(C)C2=O)ccc1OC (stereo not shown) [Example 17] | 0.01 to 0.1 | III (III = <10-fold selectivity) | –
25 | CN1C(=O)[C@@](c2ccc(OCCF)cc2)(c2ccc(F)c(-c3cncnc3)c2)N=C1N [Example 139B, (5R)-2-Amino-5-[4-(2-fluoroethoxy)phenyl]-5-(4-fluoro-3-pyrimidin-5-ylphenyl)-3-methyl-3,5-dihydro-4H-imidazol-4-one] | 0.11 to 1 | III (III = <10-fold selectivity) | –
26 | COc1ccc(C2(c3ccc(F)c(-c4cnccc4F)c3)N=C(N)N(C)C2=O)cc1 (stereo not shown) [Example 83] | 0.01 to 0.1 | II (II = 10-100-fold selectivity) | –

Results, then the compound that gave them:

Row | IC50 (human BACE1) [µM] | BACE1/BACE2 selectivity (human BACE2) | melting point [°C] | SMILES
27 | 0.01 to 0.1 | I (I = >100-fold selectivity) | 115 | COc1ccc(C2(c3ccc(F)c(-c4cncnc4)c3)N=C(N)N(C)C2=O)cc1C(F)(F)F (stereo not shown) [Example 56]
28 | 0.11 to 1 | I (I = >100-fold selectivity) | 124 to 129 | CN1C(=O)C(c2ccc(OC(F)(F)F)cc2)(c2ccc(Cl)c(-c3cncnc3)c2)N=C1N (stereo not shown) [Example 49]
29 | 0.01 to 0.1 | II (II = 10-100-fold selectivity) | 99 to 100 | CCOc1ccc(C2(c3ccc(F)c(-c4cccnc4)c3)N=C(N)N(C)C2=O)cc1OCC (stereo not shown) [Example 27]
30 | 0.01 to 0.1 | II (II = 10-100-fold selectivity) | 104 to 106 | CN1C(=O)C(c2ccc(OC(F)F)cc2)(c2ccc(F)c(-c3cccnc3)c2)N=C1N (stereo not shown) [Example 95]
31 | 0.01 to 0.1 | II (II = 10-100-fold selectivity) | 134 | CN1C(=O)C(c2ccc(OC(F)(F)F)cc2)(c2ccc(F)c(-c3cccnc3)c2)N=C1N (stereo not shown) [Example 50]
32 | 0.11 to 1 | II (II = 10-100-fold selectivity) | 241 to 243 | CN1C(=O)C(c2ccc(OC(F)(F)F)cc2)(c2ccc(F)c(-c3cncc(Cl)c3)c2)N=C1N (stereo not shown) [Example 46]
33 | 0.01 to 0.1 | II (II = 10-100-fold selectivity) | 198 | CN1C(=O)C(c2cccc(OC(F)(F)F)c2)(c2cccc(-c3cccnc3)c2)N=C1N (stereo not shown) [Example 25]
34 | 0.11 to 1 | II (II = 10-100-fold selectivity) | 183 | CN1C(=O)C(c2ccc(SC(F)(F)F)cc2)(c2ccc(F)c(-c3cncnc3)c2)N=C1N (stereo not shown) [Example 94]
35 | 0.11 to 1 | II (II = 10-100-fold selectivity) | 201 to 203 | CN1C(=O)C(c2ccc(OC(F)(F)F)c(F)c2)(c2ccc(F)c(-c3cncc(Cl)c3)c2)N=C1N (stereo not shown) [Example 42]
36 | 0.01 to 0.1 | II (II = 10-100-fold selectivity) | 98 | CN1C(=O)C(c2cccc(-c3cccnc3)c2)(c2ccc(OC(F)(F)F)c(C(F)(F)F)c2)N=C1N (stereo not shown) [Example 26]
37 | 0.01 to 0.1 | II (II = 10-100-fold selectivity) | 99 to 102 | CN1C(=O)C(c2ccc(OC(F)(F)F)c(Cl)c2)(c2ccc(F)c(-c3cccnc3)c2)N=C1N (stereo not shown) [Example 28]
38 | 0.01 to 0.1 | II (II = 10-100-fold selectivity) | – | CN1C(=O)C(c2ccc(OC(F)(F)F)c(F)c2)(c2ccc(F)c(-c3cccnc3F)c2)N=C1N (stereo not shown) [Example 43]
